{"source": "patent US20180153840A1", "about": "“THE COMPOSITIONS OF GLYCEROL AND /OR NON-TOXIC AMINO ACIDS FOR INHIBITING AND DESTROYING BIOFILM, INCLUDING RELATED METHODS” (priority 2015, published 2018)", "key": {"[1]": {"tested_on": "bacterial and fungal biofilms", "assay": "In vitro testing on bacterial and fungal biofilms", "type": "cell-based", "details": "for effect on bacterial and fungal biofilm (in words): in vitro", "description": "(§1) For fungal biofilm assays, all solutions were prepared in RPMI 1640 medium. All bacterial biofilm solutions were prepared in Trypic Soy Broth (TSB), supplemented with 1% glucose (henceforth referred to as TSB-G). All subsequent procedures were performed in a manner that maintained sterility. A solution of each amino acid to be tested was prepared in weight to volume concentrations ranging from 0.1-5.0%. Amino acids were also tested in combinations. Compound solutions were homogenized with gentle agitation in the dark (4° C., 24 hours) before use.\n(§2) All biofilm assays were performed using 384-well non-tissue culture treated polystyrene plates. The fungal species tested are as follows: Candida albicans, Candida guilliermondii Candida parapsilosis, Candida glabrata, Candida tropicalis and Candida dubliniensis. The bacterial species tested are as follows: Staphylococcus aureus (standard wild type and methicillin-resistant strain USA300), Escherichia coli, Pseudomonas aeruginosa and Staphylococcus epidermidis.\n(§3) Fungal strains were streaked on Yeast Peptone Dextrose (YPD) agar plates and incubated at 30° C. for 48 hours. A single colony from each strain to be tested was inoculated into YPD broth and grown for 12 hours, at 30° C., shaking at 225 rpm. For the fungal biofilm inhibition assay, 1 μl of saturated overnight cell culture was added to either 80 μL of RPMI-1640 or RPMI-1640 supplemented with the amino acid compound solution to be tested, in a 384-well plate. The cells were allowed to adhere to the plate for 90 minutes at 37° C. with shaking (350 rpm). Loosely bound cells were washed once with phosphate buffered saline (PBS) and 80 ul of RPMI-1640, or RPMI-1640 supplemented with the amino acid compound solution was added to the plate. The plate was further incubated for 24 hours at 37° C. with shaking (350 rpm). Media was carefully aspirated and the biofilm was measured for fungal cell concentration by optical density at 600 nm. Twelve replicates were performed for each tested condition and the reported values were normalized to the control (RPMI-1640 media only).\n(§4) For the fungal biofilm disruption assays, 80 μL of RPMI-1640 was added to the plate, along with 1 μL of overnight cell culture. The cells were allowed to adhere to the plate for 90 minutes at 37° C. with shaking (350 rpm). Loosely bound cells were washed once with PBS and 80 μL of RPMI-1640 was added to the plate. The plate was further incubated for 24 hours at 37° C. with shaking (350 rpm). Media was carefully aspirated from the mature biofilm and 80 μL of RPMI-1640, or RPMI-1640 supplemented with the amino acid compound solution to be tested, was gently added to the plate. The plate was further incubated for 24 hours at 37° C. with shaking (350 rpm). Media was carefully aspirated and the biofilm was measured for fungal cell concentration by optical density at 600 nm. Twelve replicates were performed for each tested condition and the reported values are normalized to the control (RPMI-1640 media only).\n(§5) Bacterial strains were streaked on Blood Agar plates (5% sheep blood in Tryptic Soy Broth) and incubated at 37° C. for 24 hours. A single colony from each strain to be tested was inoculated in a TSB broth and grown for 12 hours, at 37° C. with shaking (225 rpm).\n(§6) For the bacterial biofilm inhibition assays, 1 μL of saturated overnight cell culture was added to either 80 μL of TSB-G, or TSB-G supplemented with the amino acid compound solution to be tested, in a 384-well plate. The cells were allowed to adhere to the plate for 60 minutes at 37° C. without shaking. The media was carefully aspirated and 80 μL of TSB-G, or TSB-G supplemented with the amino acid compound solution was added to the plate. The plate was further incubated for 24 hours at 37° C. without shaking. Media was carefully aspirated and the biofilm was measured for bacterial cell concentration by optical density at 600 nm."}, "[2]": {"description": "as §1, §2"}, "[3]": {"tested_on": "C. albicans biofilm", "assay": "Fungal biofilm inhibition assay", "type": "cell-based, Candida albicans", "details": "sustained inhibition assay, 1% amino acid, p≤0.001", "description": "as §1, §2, §3"}, "[4]": {"tested_on": "C. albicans biofilm", "assay": "Fungal biofilm disruption assay", "type": "cell-based, Candida albicans", "details": "1% amino acid, p≤0.001", "description": "as §1, §2, §4"}, "[5]": {"tested_on": "S. aureus biofilm", "assay": "Bacterial biofilm inhibition assay", "type": "cell-based, Staphylococcus aureus", "details": "sustained inhibition assay; S. aureus; 1% amino acid; p≤0.001", "description": "as §1, §2, §5\nas §6, with “nm. Eight or twelve replicates were performed for each tested condition and the reported values were normalized to the control (TSB-G media only).” for “nm.”"}, "[6]": {"tested_on": "S. aureus biofilm", "assay": "Bacterial biofilm disruption assay", "type": "cell-based", "details": "Staphylococcus aureus, disruption assay, S. aureus, read-out: Reduce B Biofilm; for inhibition at 1 %: 1% amino acid, p≤0.001", "description": "as §1, §2, §5\n(§7) For the bacterial biofilm disruption assays, 80 μL of TSB-G was added to the plate, along with 1 μL of overnight cell culture. The cells were allowed to adhere to the plate for 60 minutes at 37° C. without shaking. The media was carefully aspirated and 80 μL of TSB-G was added to the plate. The plate was further incubated for 24 hours at 37° C. without shaking. Media was carefully aspirated from the mature biofilm and 80 μL of TSB-G, or TSB-G supplemented with the amino acid to be tested, was gently added to the plate. The plate was further incubated for 24 hours at 37° C. without shaking. Media was aspirated and the biofilm was measured for bacterial cell concentration by optical density at 600 nm. Twelve replicates were performed for each tested condition and the reported values were normalized to the control (TSB-G media only)."}, "[7]": {"tested_on": "bacteria (S. aureus) biofilm and fungal (C. albicans) biofilm", "assay": "Sustained inhibition biofilm assay, bacterial and fungal together (Table C: Both/Neutral)", "type": "cell-based, Staphylococcus aureus; Candida albicans", "details": "1% amino acid", "description": "as §1, §2\nFungal strains were streaked on Yeast Peptone Dextrose (YPD) agar plates and incubated at 30° C. for 48 hours. A single colony from each strain to be tested was inoculated into YPD broth and grown for 12 hours, at 30° C., shaking at 225 rpm. For the fungal biofilm inhibition assay, 1 μl of saturated overnight cell culture was added to either 80 μL of RPMI-1640 or RPMI-1640 supplemented with the amino acid compound solution to be tested, in a 384-well plate. The cells were allowed to adhere to the plate for 90 minutes at 37° C. with shaking (350 rpm). […] Media was carefully aspirated and the biofilm was measured for fungal cell concentration by optical density at 600 nm. […]\nFor the bacterial biofilm inhibition assays, 1 μL of saturated overnight cell culture was added to either 80 μL of TSB-G, or TSB-G supplemented with the amino acid compound solution to be tested, in a 384-well plate. […] Media was carefully aspirated and the biofilm was measured for bacterial cell concentration by optical density at 600 nm. […]"}, "[8]": {"tested_on": "bacteria (S. aureus) biofilm and fungal (C. albicans) biofilm", "assay": "Disruption biofilm assay, bacterial and fungal together (Table D: Both/Neutral)", "type": "cell-based, Staphylococcus aureus; Candida albicans", "details": "1% amino acid", "description": "as §1, §2\nas §4, with “Twelve replicates were performed for each tested condition and the reported values are normalized to the control (RPMI-1640 media only).” left out\nFor the bacterial biofilm disruption assays, 80 μL of TSB-G was added to the plate, along with 1 μL of overnight cell culture. […] Media was aspirated and the biofilm was measured for bacterial cell concentration by optical density at 600 nm. […]"}, "[9]": {"tested_on": "bacterial biofilms", "assay": "Bacterial biofilm assays (sustained inhibition and/or disruption)", "type": "cell-based, Staphylococcus aureus", "details": "individually, about 0.1 to about 5.0% weight to volume (cystathionine 0.2%); at least one of the two assays", "description": "as §1, §2, §5\nas §6, with “nm. Eight or twelve replicates were performed for each tested condition and the reported values were normalized to the control (TSB-G media only).” for “nm.”\nas §7"}}}
{"smiles": "Cn1cnc(C[C@H](N)C(=O)O)c1", "note": "[1-Methylhistidine, 1-methyl-L-histidine]", "values": [{"measurement": "neutral, effect on bacterial or fungal biofilms", "setting": "[1]; both assays (sustained inhibition and disruption)", "result": "no effect on bacterial or fungal biofilms"}, {"measurement": "solubility (in words)", "setting": "[2]", "result": "limited solubility"}]}
{"smiles": "N[C@@H](CC(=O)O)C(=O)O", "note": "[Aspartic Acid, L-aspartic acid]", "values": [{"measurement": "Reduce F Biofilm", "setting": "[3]", "result": "•• (two dots (●●) signifies an effect of greater than 30% change)"}, {"measurement": "Reduce F Biofilm", "setting": "[4]", "result": "•• (two dots (●●) signifies an effect of greater than 30% change)"}, {"measurement": "Reduce B Biofilm", "setting": "[5]", "result": "•• (two dots (●●) signifies an effect of greater than 30% change)"}, {"measurement": "inhibition at 1 %", "setting": "[6]", "result": "> 30", "unit": "%"}, {"measurement": "Reduce Both", "setting": "[7]", "result": "•• (two dots (●●) signifies an effect of greater than 30% change)"}, {"measurement": "Reduce Both", "setting": "[8]", "result": "•• (two dots (●●) signifies an effect of greater than 30% change)"}, {"measurement": "effect on bacterial and fungal biofilm (in words)", "setting": "[1]", "result": "very active against biofilm"}]}
{"smiles": "N[C@@H](CCSC[C@H](N)C(=O)O)C(=O)O", "note": "[Cystathionine, L-cystathionine]", "values": [{"measurement": "inhibition at 0.2 %", "setting": "[6]; 0.2% amino acid", "result": "10 to 30", "unit": "%"}, {"measurement": "anti-biofilm properties against bacterial biofilms", "setting": "[9]", "result": "anti-biofilm properties against bacterial biofilms"}, {"measurement": "solubility (in words)", "setting": "[2]", "result": "limited solubility"}]}
{"smiles": "N[C@@H](CS)C(=O)O", "note": "[Cysteine, L-cysteine]", "values": [{"measurement": "Reduce F Biofilm", "setting": "[3]", "result": "•• (two dots (●●) signifies an effect of greater than 30% change)"}, {"measurement": "Reduce F Biofilm", "setting": "[4]", "result": "•• (two dots (●●) signifies an effect of greater than 30% change)"}, {"measurement": "Reduce B Biofilm", "setting": "[5]", "result": "•• (two dots (●●) signifies an effect of greater than 30% change)"}, {"measurement": "inhibition at 1 %", "setting": "[6]", "result": "> 30", "unit": "%"}, {"measurement": "Reduce Both", "setting": "[7]", "result": "•• (two dots (●●) signifies an effect of greater than 30% change)"}, {"measurement": "Reduce Both", "setting": "[8]", "result": "•• (two dots (●●) signifies an effect of greater than 30% change)"}]}
{"smiles": "N[C@@H](CCC(=O)O)C(=O)O", "note": "[Glutamic Acid, L-glutamic acid]", "values": [{"measurement": "Reduce F Biofilm", "setting": "[3]", "result": "•• (two dots (●●) signifies an effect of greater than 30% change)"}, {"measurement": "Reduce F Biofilm", "setting": "[4]", "result": "•• (two dots (●●) signifies an effect of greater than 30% change)"}, {"measurement": "Reduce B Biofilm", "setting": "[5]", "result": "•• (two dots (●●) signifies an effect of greater than 30% change)"}, {"measurement": "inhibition at 1 %", "setting": "[6]", "result": "> 30", "unit": "%"}, {"measurement": "Reduce Both", "setting": "[7]", "result": "•• (two dots (●●) signifies an effect of greater than 30% change)"}, {"measurement": "Reduce Both", "setting": "[8]", "result": "•• (two dots (●●) signifies an effect of greater than 30% change)"}, {"measurement": "effect on bacterial and fungal biofilm (in words)", "setting": "[1]", "result": "very active against biofilm"}]}
